Measured values from PubChem BioAssay (NCI).
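Step 1: Grow cells in 96-well plates. Step 2: Expose to compound for 48 hours at 5 concentrations. Step 3: Interpolate endpoints linearly; if unreached, use highest concentration. TGI is the concentration that stops growth completely.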

Experiments:
Assay in all cases: DTP human tumour cell line panel, 48 h
XF 498 CNS = test system: XF 498 CNS
SNB-75 CNS = test system: SNB-75 CNS
SK-MEL-5 melanoma = test system: SK-MEL-5 melanoma
HOP-62 NSCLC = test system: HOP-62 NSCLC
LXFL 529 NSCLC = test system: LXFL 529 NSCLC
SK-MEL-28 melanoma = test system: SK-MEL-28 melanoma
A498 renal = test system: A498 renal
LOX IMVI melanoma = test system: LOX IMVI melanoma
SF-295 CNS = test system: SF-295 CNS
OVCAR-8 ovarian = test system: OVCAR-8 ovarian
OVCAR-4 ovarian = test system: OVCAR-4 ovarian
SW-620 colon = test system: SW-620 colon
DMS 114 small cell lung = test system: DMS 114 small cell lung
HCC-2998 colon = test system: HCC-2998 colon
K-562 leukemia = test system: K-562 leukemia
M14 melanoma = test system: M14 melanoma
KM20L2 colon = test system: KM20L2 colon
DLD-1 colon = test system: DLD-1 colon
NCI-H23 lung = test system: NCI-H23 lung
SNB-78 CNS = test system: SNB-78 CNS
SK-OV-3 ovarian = test system: SK-OV-3 ovarian
SF-539 CNS = test system: SF-539 CNS
RXF-631 renal = test system: RXF-631 renal
NCI-H460 lung = test system: NCI-H460 lung
NCI-H226 lung = test system: NCI-H226 lung
COLO 205 colon = test system: COLO 205 colon
RPMI-8226 leukemia = test system: RPMI-8226 leukemia
HOP-92 NSCLC = test system: HOP-92 NSCLC
SN12C renal = test system: SN12C renal
SNB-19 CNS = test system: SNB-19 CNS
KM12 colon = test system: KM12 colon
HOP-18 NSCLC = test system: HOP-18 NSCLC
RXF 393 renal = test system: RXF 393 renal
IGROV1 ovarian = test system: IGROV1 ovarian
NCI-H522 lung = test system: NCI-H522 lung
OVCAR-3 ovarian = test system: OVCAR-3 ovarian
ACHN renal = test system: ACHN renal
U251 CNS = test system: U251 CNS
EKVX NSCLC = test system: EKVX NSCLC
CAKI-1 renal = test system: CAKI-1 renal
M19-MEL melanoma = test system: M19-MEL melanoma
SF-268 CNS = test system: SF-268 CNS
UACC-257 melanoma = test system: UACC-257 melanoma
UO-31 renal = test system: UO-31 renal
A549 NSCLC = test system: A549 NSCLC
TK-10 renal = test system: TK-10 renal
DMS 273 small cell lung = test system: DMS 273 small cell lung
SR leukemia = test system: SR leukemia
MALME-3M melanoma = test system: MALME-3M melanoma
UACC-62 melanoma = test system: UACC-62 melanoma
CCRF-CEM leukemia = test system: CCRF-CEM leukemia
HCT-116 colon = test system: HCT-116 colon
HT29 colon = test system: HT29 colon
HL-60(TB) leukemia = test system: HL-60(TB) leukemia
MOLT-4 leukemia = test system: MOLT-4 leukemia
HCT-15 colon = test system: HCT-15 colon
OVCAR-5 ovarian = test system: OVCAR-5 ovarian
SK-MEL-2 melanoma = test system: SK-MEL-2 melanoma

O=C(CC1Sc2ccccc2NC1=O)Nc1ccc(Cl)cc1 (stereo not drawn)
TGI (XF 498 CNS): > 100 µM | TGI (SNB-75 CNS): > 100 µM | TGI (SK-MEL-5 melanoma): > 100 µM | TGI (HOP-62 NSCLC): > 100 µM | TGI (LXFL 529 NSCLC): > 100 µM | TGI (SK-MEL-28 melanoma): > 100 µM | TGI (A498 renal): > 100 µM | TGI (LOX IMVI melanoma): > 100 µM | TGI (SF-295 CNS): > 100 µM | TGI (OVCAR-8 ovarian): > 100 µM | TGI (OVCAR-4 ovarian): 47.3 µM | TGI (SW-620 colon): > 100 µM | TGI (DMS 114 small cell lung): > 100 µM | TGI (HCC-2998 colon): > 100 µM | TGI (K-562 leukemia): > 100 µM | TGI (M14 melanoma): > 100 µM | TGI (KM20L2 colon): > 100 µM | TGI (DLD-1 colon): > 100 µM | TGI (NCI-H23 lung): > 100 µM | TGI (SNB-78 CNS): > 100 µM | TGI (SK-OV-3 ovarian): > 100 µM | TGI (SF-539 CNS): > 100 µM | TGI (RXF-631 renal): > 100 µM | TGI (NCI-H460 lung): > 100 µM | TGI (NCI-H226 lung): > 100 µM | TGI (COLO 205 colon): > 100 µM | TGI (RPMI-8226 leukemia): > 100 µM | TGI (HOP-92 NSCLC): 67.2 µM | TGI (SN12C renal): > 100 µM | TGI (SNB-19 CNS): > 100 µM | TGI (KM12 colon): > 100 µM | TGI (HOP-18 NSCLC): > 100 µM | TGI (RXF 393 renal): 67.2 µM | TGI (IGROV1 ovarian): > 100 µM | TGI (NCI-H522 lung): > 100 µM | TGI (OVCAR-3 ovarian): > 100 µM | TGI (ACHN renal): > 100 µM | TGI (U251 CNS): > 100 µM | TGI (EKVX NSCLC): > 100 µM | TGI (CAKI-1 renal): > 100 µM | TGI (M19-MEL melanoma): > 100 µM | TGI (SF-268 CNS): > 100 µM | TGI (UACC-257 melanoma): > 100 µM | TGI (UO-31 renal): > 100 µM | TGI (A549 NSCLC): > 100 µM | TGI (TK-10 renal): > 100 µM | TGI (DMS 273 small cell lung): > 100 µM | TGI (SR leukemia): > 100 µM | TGI (MALME-3M melanoma): > 100 µM | TGI (UACC-62 melanoma): > 100 µM | TGI (CCRF-CEM leukemia): > 100 µM | TGI (HCT-116 colon): > 100 µM | TGI (HT29 colon): > 100 µM | TGI (HL-60(TB) leukemia): > 100 µM | TGI (MOLT-4 leukemia): > 100 µM | TGI (HCT-15 colon): > 100 µM | TGI (OVCAR-5 ovarian): > 100 µM | TGI (SK-MEL-2 melanoma): > 100 µM
